In PubChem BioAssay (NCI):
Where “and” joins values, the source holds several entries; their conditions need not be identical. Identical values can stand only once.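 These data come from cells grown in 96-well plates and exposed to compound for 48 hours at five concentrations. GI50 is the concentration that inhibits growth by half. TGI: total growth inhibition.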

Key:
Experiment in all cases: DTP human tumour cell line panel, 48 h
ACHN renal = tested on: ACHN renal
SF-268 CNS = tested on: SF-268 CNS
HL-60(TB) leukemia = tested on: HL-60(TB) leukemia
SK-MEL-28 melanoma = tested on: SK-MEL-28 melanoma
OVCAR-4 ovarian = tested on: OVCAR-4 ovarian
TK-10 renal = tested on: TK-10 renal
786-0 renal = tested on: 786-0 renal
HCT-116 colon = tested on: HCT-116 colon
T-47D breast = tested on: T-47D breast
MCF7 breast = tested on: MCF7 breast

SMILES	TGI (ACHN renal) [µM]	TGI (SF-268 CNS) [µM]	TGI (HL-60(TB) leukemia)	TGI (SK-MEL-28 melanoma)	TGI (OVCAR-4 ovarian) [µM]	TGI (TK-10 renal)	TGI (786-0 renal) [µM]	TGI (HCT-116 colon) [µM]	TGI (T-47D breast) [µM]	TGI (MCF7 breast) [µM]	GI50 (ACHN renal)	GI50 (SF-268 CNS) [µM]	GI50 (SK-MEL-28 melanoma)	GI50 (OVCAR-4 ovarian) [µM]	GI50 (HCT-116 colon) [µM]	GI50 (T-47D breast) [µM]	GI50 (HL-60(TB) leukemia) [µM]	GI50 (TK-10 renal)	GI50 (MCF7 breast) [µM]
CSCCC(N)C(=O)NCCNc1ccc(NCCNC(=O)C(N)CCSC)c2c1C(=O)c1ccccc1C2=O (stereo unspecified)	5.45	4.55	5.36 µM	3.17 µM	3.71	9.3 µM	1.89	2.16	10.9	4.77									
CCNCCCn1c2c(c3ccc(Cl)cc3c1=O)C(=O)c1cc(OC)cnc1-2	1.35	2.04		4.54 µM	2.4			1.56	1.58		0.154 µM	0.33	1.92 µM	0.542	0.203	0.161			
Cc1cc(F)ccc1S(=O)(=O)Nc1cc(-c2c(O)ccc3ccccc23)c(O)c2ccccc12	8.03	14.3	6.19 µM	9.74 µM	6.66	17.6 µM		11.3		25.6	2.44 µM	3.4	3.12 µM	2.21	2.7		2.6	5.87 µM	2.42
CO/N=C1\CC(NC(=O)CNC(=O)OC(C)(C)C)c2ccsc21 (stereo unspecified)		> 100	> 100 µM	> 100 µM	> 100	> 100 µM		> 100	> 100	> 100									
CC(C)=NN/C(=N\S(=O)(=O)c1ccc(Oc2cccc(Cl)c2C#N)cc1)Nc1ccc(Cl)cc1		> 100	> 100 µM	> 100 µM	> 100	> 100 µM	> 100	> 100	> 100	> 100									
Cc1cc(C)nc(SC2=C(Nc3ccc(C)c(Cl)c3)C(=O)N(Cc3ccccc3)C2=O)n1	> 160	> 160		> 160 µM	> 160	> 160 µM		> 160			> 160 µM	> 160	> 160 µM	> 160	> 160			> 160 µM	
COC(=O)C1CCC(=S)N1C(=O)c1ccccc1 (stereo unspecified)	> 100	> 100		> 100 µM	> 100	> 100 µM	> 100	> 100	> 100	> 100									
CCCCC(=O)c1c(O)nc2sccn2c1=O	> 10	> 10	> 10 µM	> 10 µM	> 10	> 10 µM		> 10	> 10	> 10									
NC(=O)NNc1nc(-c2ccccc2)cs1	> 100	> 100		> 100 µM	> 100	> 100 µM	> 100	> 100	> 100	> 100									
COc1ccc(N2C(=O)CC(=O)N(C(=O)COc3ccc(OCC(=O)N4C(=O)CC(=O)N(c5ccc(OC)cc5)C4=S)cc3)C2=S)cc1	> 100	> 100		> 100 µM	> 100	> 100 µM	> 100	39.5		> 100									
CC(=O)Oc1cc2c(cc1OC(C)=O)OCC(c1ccc(C)cc1)C2 (stereo unspecified)		34.2	6.56 µM	39.3 µM	25.7			41.5		50.4									
O=S(=O)(c1ccc(NC2=NC(c3ccc(O)cc3)(c3ccccc3O)c3ccccc32)cc1)c1ccc(NC2=NC(c3ccc(O)cc3)(c3ccccc3O)c3ccccc32)cc1 (stereo unspecified)	> 100	> 44.5	5.09 µM	> 28 µM	13.7	> 100 µM	> 28.8	25.2		> 100									
C[n+]1cccc2c(=O)c3ccccc3oc21	> 100	> 100	> 100 µM	> 100 µM	> 100	> 100 µM		> 100	> 100	> 100									
CCOc1ccc(N/C(=C(/C(Cl)=C(/Cl)N(CC)CC)[N+](=O)[O-])n2nnc3ccccc32)cc1	47.9	36.2		41.4 µM	52.8		33.2	30.4	28.9	> 100									
O=C1CCCCC/C1=C\c1ccc([N+](=O)[O-])cc1	55	82	94.4 µM	> 100 µM		74.4 µM	54.6	57.6	> 100	> 100									
COC(=O)c1cc(=O)[nH]c(=O)[nH]1	> 100	> 100	> 100 µM	> 100 µM	> 100	> 100 µM	> 100	> 100	> 100										
CSCSSC	> 100	> 100		> 100 µM	> 100	> 100 µM	> 100	> 100	> 100	> 100									
[Cl][Sn]([c]1ccccc1)([c]1ccccc1)[c]1ccccc1			0.899 µM and 0.0997 µM	0.414 µM and 0.146 µM and 0.0808 µM		0.604 µM and 0.283 µM			0.412		0.213 µM and 0.034 µM and 0.0215 µM		0.196 µM and 0.0263 µM and 0.0229 µM			0.171		0.24 µM and 0.148 µM	
C=C[C@@H](C)[C@H](NS(=O)(=O)c1ccc(C)cc1)C(=O)OCC	> 100	> 100	> 100 µM	> 100 µM	> 100	> 100 µM	> 100	> 100		70.6									
C/C=C/c1cc(=O)c([C@@H]2OC(=O)c3cc(OC)cc(OC)c32)co1	> 100	> 100	> 100 µM	> 100 µM	> 100	> 100 µM		> 100											
NC(=O)c1cccc([N+](=O)[O-])c1		> 100	> 100 µM	> 100 µM		> 100 µM	> 100												
CC1C(=O)N(c2ccccc2)NC12CCCc1ccccc12 (stereo unspecified)	> 100	> 100	> 100 µM	> 100 µM	> 100	> 100 µM		> 100	> 100	> 100									
CN(C)C(=O)OC1C(=O)N(C)c2ccc(Cl)cc2C2(c3ccccc3)N1C2(Cl)Cl (stereo unspecified)	> 100	> 100	> 100 µM	> 100 µM	> 100	> 100 µM		> 100											
